According to patent US6458760B1, “Method for treating tissue damaged from ischemia” (Henry Ford Health System, priority 1998, dated 2002):
Non-standard residues stand in square brackets, D forms with d. Residues, ends and D or L forms follow the SMILES beside them. *: point of attachment. Phe(4-NO2) = N[CH](Cc1ccc([N+](=O)[O-])cc1)C(=O)O; Cit = NC(=O)NCCC[CH](N)C(=O)O; Cbz = O=C(OCc1ccccc1)*; CHN2 = [N-]=[N+]=C*; Bn = c1ccc(C*)cc1; tBu = CC(C)(C)*

Legend:
Cathepsin B = Cathepsin B (Homo sapiens, UniProt P07858); assay: Cathepsin B inactivation rate, fluorimetric progress curves; format: biochemical; settings: second order inactivation rate constant corrected for substrate; pH 5.4, 30° C.
Protocol: (§1) (“Tian, et al.”) the contents of which are incorporated by reference. More specifically, the value of kobs is given by the slope of a plot of ln [P]∞−[p]t versus t (time). The apparent second-order rate contact for inactivation, k2app was calculated as kobs/[I]. The inactivation-rates (kobs) in the presence of substrate and for different inhibitor concentrations for calpain, cathepsin B and cathepsin L are determined according to the method of Tian, et al. However, k2app is corrected for the presence of substrate (s) to give the second order rate constant k^12app, calculated as k^12app=k2app (1+[s]/Km).
Cathepsins B and L were preactivated with […] DTT in 50 mM sodium acetate buffer, pH 5.4, 1 mM EDTA for 2 h at 4° C. and assayed in the same buffer with 0.01% Brij [poly(oxyethylene) glycol dodecyl ether]. […] The inhibitors (0.1-1 μM) and substrate were added to the reaction mixture to incubate for 5 min in a cuvette thermostated at 30° C. Then, approximately 0.4 nM and 0.1 nM final concentration of cathepsin B and cathepsin L, respectively, were used to initiate the reaction. […] The progress curves were analyzed over at least 3 half lives to calculate the rate constants of inactivation in accordance with the procedure described by Crawford, C. Mason, R. W., Wilkström, P., and Shaw, E. in an article entitled “The design of peptidyldiazomethane inhibitors to distinguish between the cysteine proteinases calpain II, cathepsin L and cathepsin B.”, Biochem. J. 1988, 253, 751-758, the contents of which are incorporated by reference. The rates of inactivation of various substrates are tabulated hereinbelow.

Cathepsin L = Cathepsin L (Homo sapiens, UniProt P07711); assay: Cathepsin L inactivation rate, fluorimetric progress curves; format: biochemical; settings: second order inactivation rate constant corrected for substrate; substrate Z-Phe-Arg-AMC; pH 5.4, 30° C.
Protocol: as §1
Cathepsins B and L were preactivated with […] DTT in 50 mM sodium acetate buffer, pH 5.4, 1 mM EDTA for 2 h at 4° C. and assayed in the same buffer with 0.01% Brij [poly(oxyethylene) glycol dodecyl ether]. 5 μM (final concentration) CBZ-Phe-Arg-AMC was used as substrate for both for cathepsins B and L. The inhibitors (0.1-1 μM) and substrate were added to the reaction mixture to incubate for 5 min in a cuvette thermostated at 30° C. Then, approximately 0.4 nM and 0.1 nM final concentration of cathepsin B and cathepsin L, respectively, were used to initiate the reaction. […] The progress curves were analyzed over at least 3 half lives to calculate the rate constants of inactivation in accordance with the procedure described by Crawford, C. Mason, R. W., Wilkström, P., and Shaw, E. in an article entitled “The design of peptidyldiazomethane inhibitors to distinguish between the cysteine proteinases calpain II, cathepsin L and cathepsin B.”, Biochem. J. 1988, 253, 751-758, the contents of which are incorporated by reference. The rates of inactivation of various substrates are tabulated hereinbelow.

Calpain = Calpain inactivation rate, fluorimetric progress curves; format: biochemical; settings: second order inactivation rate constant corrected for substrate; substrate Suc-Leu-Tyr-AMC; pH 7.5, 37° C.
Protocol: as §1
Calpain was assayed fluorimetrically in 1 ml of 50 mM Tris/acetate buffer, pH 7.5, containing 5 mM CaCl2, 2.5 mM DTT(dithiothreitol), 0.1% Triton X-100 at 37° C., using 2.5×10^−4 M Suc-Leu-Tyr-aminomethylcoumarin (AMC) (Novabiochem, Switzerland) as substrate and 50nM (final concentration) of enzyme. The appearance of the 7-amino-4 methylcoumarin product was recorded continuously with a Perkin Elmer 650-10S spectrofluorimeter, a SPEX Fluorolog 1680, or SLM 8000C fluorescence spectrometer with excitation at 370 nm and emission at 460 nm.
Typically, 5 μL of the substrate solution (50 mM stock in DMSO) was added to 1 mL of buffer. Varying concentrations of the inhibitor solution (10 μL of a DMSO […] solution) were added, followed by 10 μL of calpain in the assay buffer. After allowing the reaction mixture to incubate for 2-5 min, during which time a steady baseline level of fluorescence was measured, calcium was added in a 10-μL volume to initiate hydrolysis of the fluorogenic substrate, and the resulting increase in fluorescence was monitored continuously. When inhibitors were tested at very low concentrations, the enzyme concentration was reduced to maintain a minimum of a 10-fold excess of inhibitor over enzyme.

[1] = system: Wistar rats with MCA occlusion; assay: Stroke model, 2 h MCA occlusion, i.v. infusion after reperfusion, infarct volume at 7 days; format: in vivo, rat; settings: 2 h MCA occlusion; for % Hemisphere Infarct Volume (% ± SEM): day 7, control 37 ± 2.6
Protocol: Male Wistar rat weighing between 270-290 gm are fasted the night prior to surgery. Each rat was then anesthetized with 3.5% halothane, and spontaneously respired with 0.5% halothane in a 2:1 N2O:O2 mixture using a face mask. A normal range of blood gases and pH is maintained during ischemia and reperfusion with the face mask inhalation, as verified by samples taken from a femoral artery PE-50 catheter. Body temperature is maintained constant at 37° C. with a recirculating heating pad and K module with an intrarectal type T thermocouple. The PE-50 catheters are inserted into the femoral artery and vein following induction of anesthesia to obtain the blood gas, glucose and hemoglobin concentrations and to monitor blood pressure.
The right common carotid artery, external carotid artery and internal carotid artery are isolated using microsurgical techniques. A clamp is applied to the common carotid artery and a 4-0 nylon suture with a rounded tip is inserted into the external carotid artery through a small puncture. The clamp on the common carotid artery is removed. The suture is passed distally into the internal carotid artery until it blocks the middle cerebral artery. Two hours after the MCA occlusion, the animal is again anesthetized, and the nylon suture is removed from the internal carotid artery.
Infusion of the inhibitor or vehicle is done by intravenous infusion via the femoral vein.
Syringe pumps were filled under sterile conditions with either isotonic saline/1% DMSO solution as the control or with the concentration of CP-1 or CP-2 indicated in the examples, hereinbelow. The pumps delivered the solution at a rate of 15 μl/min for up to 4 hours.
After anesthesia had been induced in the rat, a catheter was inserted into the femoral vein and tunneled subcutaneously in the posterior neck region. Body temperature was maintained at a constant temperature of 37° C. during surgical procedures. The animals underwent 2 hours of MCA occlusion, and then reperfusion when the suture was withdrawn, and immediately thereafter, the drug was infused for four hours. The animals were killed after a 7-day reperfusion, and the brains were formalin fixed and sliced 6-μm thick into seven coronal sections A-G, and mounted on coated slides. After staining with hematoxylin and eosin, the stroke volume was measured using an image analysis program. The stroke area and the contralateral hemispheric area were calculated by tracing the areas on the computer screen, and the volumes were determined by multiplying the appropriate area by the section interval thickness. The stroke volume is expressed as the percentage of lesion size to the volume of contralateral hemisphere. Statistical analysis was performed using the independent t-test.
CP-1 dissolved in 1% DMSO and isotonic saline was given intravenously to Wistar rats (15 μl/min) at concentrations of 2 μM, 10μM, 50μM and 25μM for 4 hours immediately after reperfusion following two hours of MCA occlusion, in accordance with the procedure described hereinabove. Control animals underwent a similar protocol but they had injected therein 1% DMSO/Saline as the vehicle within four hours. All animals which survived 7 days were sacrificed and the stroke volume calculated. The results are tabulated hereinbelow:
The protocol described hereinabove was repeated with CP-2 used in lieu of CP-1, at doses of 10, 50, 250 and 500 μM.

Chain of Cathepsin L (P07711 114-333, species assumed): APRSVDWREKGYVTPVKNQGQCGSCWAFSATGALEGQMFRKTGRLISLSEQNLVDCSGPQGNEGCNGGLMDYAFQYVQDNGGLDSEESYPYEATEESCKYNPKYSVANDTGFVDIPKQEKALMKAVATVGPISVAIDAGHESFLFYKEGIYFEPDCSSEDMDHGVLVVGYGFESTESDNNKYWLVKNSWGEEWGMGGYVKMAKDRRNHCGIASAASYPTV

| Compound | Cathepsin B k′2app (Cathepsin B) | Cathepsin L k′2app (Cathepsin L) | Calpain k′2app (Calpain) | also measured |
| --- | --- | --- | --- | --- |
| CC(C)C[C@H](NC(=O)OCc1ccccc1)C(=O)N[C@@H](CC(C)C)C(=O)N[C@@H](Cc1ccc(O)cc1)C(=O)C=[N+]=[N-] [CBZ-Leu-Leu-Tyr-CHN2, benzyloxycarbonyl -Leu-Leu-Tyr-CHN2] (Cbz-Leu-Leu-Tyr-CHN2) | 1,300 M^−1S^−1 | 1,500,000 M^−1S^−1 | 230,000 M^−1S^−1 |  |
| CC(C)CC(NC(=O)OCc1ccccc1)C(=O)NC(Cc1ccc(O)cc1)C(=O)C=[N+]=[N-] (stereo not drawn) [CBZ-Leu-Tyr-CHN2, benzyloxycarbonyl-Leu-Tyr-CHN2] (Cbz-Leu-Tyr-CHN2; configuration not given here) | <50 M^−1S^−1 | 1,500,000 M^−1S^−1 | 1,470 M^−1S^−1 |  |
| CC(C)CC(NC(=O)OCc1ccccc1)C(=O)NC(Cc1c[nH]c2ccccc12)C(=O)C=[N+]=[N-] (stereo not drawn) [CBZ-Leu-Trp-CHN2, benzyloxycarbonyl-Leu-Trp-CHN2] | <50 M^−1S^−1 | 12,000 M^−1S^−1 |  |  |
| CSCCC(NC(=O)C(CC(C)C)NC(=O)OCc1ccccc1)C(=O)C=[N+]=[N-] (stereo not drawn) [CBZ-Leu-Met-CHN2, benzyloxycarbonyl-Leu-Met-CHN2] (Cbz-Leu-Met-CHN2; configuration not given here) | 4,060 M^−1S^−1 | 212,000 M^−1S^−1 |  |  |
| CC(NC(=O)C(Cc1ccc(I)cc1)NC(=O)OCc1ccccc1)C(=O)C=[N+]=[N-] (stereo not drawn) [CBZ-Phe(I)-Ala-CHN2, benzyloxycarbonyl-Phe (I) -Ala-CHN2] | 980 M^−1S^−1 | 130,000 M^−1S^−1 |  |  |

More lines, main results first:

| Cathepsin B k′2app (Cathepsin B) | Cathepsin L k′2app (Cathepsin L) | Compound | Calpain k′2app (Calpain) | also measured |
| --- | --- | --- | --- | --- |
| 30,000 M^−1S^−1 | 390,000 M^−1S^−1 | [N-]=[N+]=CC(=O)C(CSCc1ccccc1)NC(=O)C(Cc1ccccc1)NC(=O)OCc1ccccc1 (stereo not drawn) [CBZ-Phe-Cys(SBnz1)-CHN2, benzyloxycarbonyl-Phe-Cys-(SBz)-CHN2] (Cbz-Phe-Cys(Bn)-CHN2; configuration not given here) |  |  |
| 350 M^−1S^−1 | 140,000 M^−1S^−1 | [N-]=[N+]=CC(=O)[C@H](Cc1ccccc1)NC(=O)[C@H](Cc1ccccc1)NC(=O)OCc1ccccc1 [CBZ-Phe-Phe-CHN2, benzyloxycarbonyl-Phe-Phe-CHN2] (Cbz-Phe-Phe-CHN2) |  |  |
| 50 M^−1S^−1 | 190,000 M^−1S^−1 | [N-]=[N+]=CC(=O)C(Cc1ccc([N+](=O)[O-])cc1)NC(=O)C(Cc1ccccc1)NC(=O)OCc1ccccc1 (stereo not drawn) [CBZ-Phe-Phe(pNO2)-CHN2, benzyloxycarbonyl-Phe-Phe (p-N02) -CHN2] (Cbz-Phe-[Phe(4-NO2)]-CHN2; configuration not given here) |  |  |
| 160 M^−1S^−1 | 60,000 M^−1S^−1 | CC(OC(C)(C)C)C(NC(=O)C(Cc1ccccc1)NC(=O)OCc1ccccc1)C(=O)C=[N+]=[N-] (stereo not drawn) [CBZ-Phe-Thr(OtBu)-CHN2, benzyloxycarbonyl-Phe-Thr(O-t-Bu)-CHN2] |  |  |
| 6,700 M^−1S^−1 | 1,800,000 M^−1S^−1 | [N-]=[N+]=CC(=O)C(CCCNC(N)=O)NC(=O)C(Cc1ccccc1)NC(=O)OCc1ccccc1 (stereo not drawn) [CBZ-Phe-Cit-CHN2, benzyloxycarbonyl-Phe-Cit-CHN2] (Cbz-Phe-[Cit]-CHN2; configuration not given here) |  |  |
| 10 M^−1S^−1 | 200,000 M^−1S^−1 | CC(C)(C)Oc1ccc(CC(NC(=O)C(Cc2ccccc2)NC(=O)OCc2ccccc2)C(=O)C=[N+]=[N-])cc1 (stereo not drawn) [CP-2, benzyloxycarbonyl-Phe-Tyr(OtBu)-CHN2] (Cbz-Phe-Tyr(tBu)-CHN2; configuration not given here) | <10 M^−1S^−1 | % Hemisphere Infarct Volume (% ± SEM) ([1]; 10 μM i.v. 15 μl/min for 4 h after reperfusion): 28 ± 4.6, p > 0.05%; % Hemisphere Infarct Volume (% ± SEM) ([1]; 50 μM i.v. 15 μl/min for 4 h after reperfusion): 35 ± 4.8, p > 0.05%; % Hemisphere Infarct Volume (% ± SEM) ([1]; 250 μM i.v. 15 μl/min for 4 h after reperfusion): 21 ± 4.7, p = 0.01%; % Hemisphere Infarct Volume (% ± SEM) ([1]; 500 μM i.v. 15 μl/min for 4 h after reperfusion): 22 ± 3.5, p = 0.004%; effectiveness in reducing stroke damage ([1]; doses 10, 50, 250 and 500 μM): High doses of CP-2 were effective, but not the lower doses |
| 1,200 M^−1S^−1 | 160,000 M^−1S^−1 | benzyloxycarbonyl-Phe-Ala-CHN2 [CBZ-Phe-Ala-CHN2] | <5 M^−1S^−1 |  |
